Reference: patent publication US20240360151A1 (SANOFI, priority 2023, published 2024)
Structures can show the parent of a compound that is named as a salt.

What was measured:
NLRP3 inflammasome = biological target: T1, NLRP3 inflammasome (Homo sapiens, UniProt Q96P20); assay: IL-1β secretion assay (NLRP3 IC50) in LPS-primed, nigericin-activated THP-1 cells, HTRF; format: cell-based; conditions: monocytic THP-1 cells; LPS 10 ng/mL 3 h priming, then compound + nigericin 10 μM 2 h; relative IC50, 10 concentrations, geometric mean
T1 construct: endogenous in cells; host or cells: THP-1 monocytic cells
T1 sequence (Q96P20 whole entry): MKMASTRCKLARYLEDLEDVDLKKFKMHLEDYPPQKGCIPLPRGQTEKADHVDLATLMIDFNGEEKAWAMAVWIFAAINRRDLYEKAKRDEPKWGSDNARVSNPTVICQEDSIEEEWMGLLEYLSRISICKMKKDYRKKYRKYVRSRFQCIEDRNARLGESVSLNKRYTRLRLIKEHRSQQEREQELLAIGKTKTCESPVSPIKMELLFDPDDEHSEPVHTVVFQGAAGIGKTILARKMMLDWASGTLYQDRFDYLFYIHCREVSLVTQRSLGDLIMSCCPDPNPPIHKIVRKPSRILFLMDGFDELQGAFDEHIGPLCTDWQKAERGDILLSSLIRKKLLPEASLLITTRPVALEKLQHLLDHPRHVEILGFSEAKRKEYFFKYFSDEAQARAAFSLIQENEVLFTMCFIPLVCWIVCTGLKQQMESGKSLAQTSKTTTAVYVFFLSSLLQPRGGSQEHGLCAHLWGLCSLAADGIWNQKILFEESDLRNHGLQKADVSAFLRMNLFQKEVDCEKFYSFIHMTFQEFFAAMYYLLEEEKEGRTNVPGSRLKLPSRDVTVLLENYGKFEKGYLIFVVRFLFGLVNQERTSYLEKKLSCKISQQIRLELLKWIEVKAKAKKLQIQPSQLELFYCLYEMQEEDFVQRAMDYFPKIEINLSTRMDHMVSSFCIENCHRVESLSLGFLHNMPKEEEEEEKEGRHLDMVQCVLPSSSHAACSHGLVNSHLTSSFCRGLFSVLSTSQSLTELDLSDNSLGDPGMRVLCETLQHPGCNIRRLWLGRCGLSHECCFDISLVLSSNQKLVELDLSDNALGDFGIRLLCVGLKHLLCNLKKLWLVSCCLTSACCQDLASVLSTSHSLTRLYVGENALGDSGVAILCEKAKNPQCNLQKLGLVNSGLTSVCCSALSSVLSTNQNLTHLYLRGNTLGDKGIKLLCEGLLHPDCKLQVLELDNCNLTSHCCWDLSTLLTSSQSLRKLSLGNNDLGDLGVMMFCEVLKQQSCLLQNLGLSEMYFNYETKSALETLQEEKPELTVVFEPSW
How it was run: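 THP-1 cells primed with LPS 10 ng/mL for 3 h at 37° C., then compound (10-point 1:3 dilution, 0.1% DMSO) added with 10 μM nigericin for 2 h. Supernatant IL-1β measured by HTRF; relative IC50 from a 4-parameter logistic fit, reported as geometric mean.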

[1] = tested on: NF-kB pathway (TNF-α secretion by THP-1 cells); assay: TNF-α secretion assay in LPS-stimulated THP-1 cells, Lumit immunoassay; format: cell-based, human; conditions: Homo sapiens, THP-1, 3 h, monocytic THP-1 cells, LPS 10 ng/mL, relative IC50, 10 concentrations, geometric mean
How it was run: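 THP-1 monocytes in RPMI with 5% FBS were treated with compound, then stimulated with 10 ng/mL LPS for 3 h. Secreted TNF-α was measured in-plate by Lumit immunoassay. Relative IC50 came from 10-concentration curves fitted with a 4-parameter logistic model, reported as geometric mean.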

| Compound | IC50 (NLRP3 inflammasome) [nM] | IC50 [1] [nM] |
| --- | --- | --- |
| Cc1cc(C)c(-c2ccc(N3C[C@@H](CO)O[C@H](C)C3)nn2)c(O)c1 [Example 359, 2-[6-[(2S,6R)-2-(hydroxymethyl)-6-methyl-morpholin-4-yl]pyridazin-3-yl]-3,5-dimethyl-phenol] | 98 | > 10000 |
| Cc1cc(C)c(-c2ccc(N3CCCc4cccc(O)c43)nn2)c(O)c1 [Example 231, 1-[6-(2-hydroxy-4,6-dimethyl-phenyl)pyridazin-3-yl]-3,4-dihydro-2H-quinolin-8-ol] | 219 | > 10000 |
| Oc1cc(Cl)cc(Cl)c1-c1ccc(N2CCOCC2)nn1 [Example 38, 3,5-dichloro-2-(6-morpholinopyridazin-3-yl)phenol] | 90 | > 10000 |
| Cc1cc(C(F)(F)F)cc(O)c1-c1ccc(N2CC[C@H]3CNC[C@@H]3C2=O)nn1 (racemic) [Example 269, rac-(3aS,7aS)-5-[6-[2-hydroxy-6-methyl-4-(trifluoromethyl)phenyl]pyridazin-3-yl]-2,3,3a,6,7,7a-hexahydro-1H-pyrrolo[3,4-c]pyridin-4-one, hydrochloride] | 404 | > 10000 |
| [2H]C([2H])(O)[C@@H]1CN(c2ccc(-c3c(C)cc(Cl)cc3O)nn2)CCO1 [Example 169, 5-chloro-2-[6-[(2S)-2-[dideuterio(hydroxy)methyl]morpholin-4-yl]pyridazin-3-yl]-3-methylphenol] | 8 | > 10000 |
| Cc1cc(C)c(-c2ccc(N3CCO[C@@H]4CCN(C)C[C@@H]43)nn2)c(O)c1 [Example 311, 2-[6-[(4aS,8aR)-6-methyl-3,4a,5,7,8,8a-hexahydro-2H-pyrido[4,3-b][1,4]oxazin-4-yl]pyridazin-3-yl]-3,5-dimethyl-phenol] | 2 | > 10000 |
| Cc1cc(C)c(-c2ccc(N3CCO[C@@H](CF)C3)nn2)c(O)c1 [Example 220, 2-[6-[(2R)-2-(fluoromethyl)morpholin-4-yl]pyridazin-3-yl]-3,5-dimethyl-phenol] | 108 | > 10000 |
| CC(=O)N1C[C@@H]2CCN(c3ccc(-c4c(C)cc(C(F)(F)F)cc4O)nn3)[C@@H]2C1 (racemic) [Example 228, 1-[rac-(3aS,6aS)-1-[6-[2-hydroxy-6-methyl-4-(trifluoromethyl)phenyl]pyridazin-3-yl]-2,3,3a,4,6,6a-hexahydropyrrolo[3,4-b]pyrrol-5-yl]ethanone] | 271 | > 10000 |
| Cc1cc(C)c(-c2ccc(N3CCOC[C@H]3CO)nn2)c(O)c1 [Example 5, 2-[6-[(3R)-3-(hydroxymethyl)morpholin-4-yl]pyridazin-3-yl]-3,5-dimethyl-phenol] | 290 | > 10000 |
| CC(=O)N1CC[C@H]2OCCN(c3ccc(-c4c(C)cc(C(F)(F)F)cc4O)nn3)[C@H]2C1 (racemic) [Example 214, 1-[rac-(4aS,8aR)-4-[6-[2-hydroxy-6-methyl-4-(trifluoromethyl)phenyl]pyridazin-3-yl]-3,4a,5,7,8,8a-hexahydro-2H-pyrido[4,3-b][1,4]oxazin-6-yl]ethanone] | 36 | > 10000 |
| CCc1cc(N2CCO[C@H](CO)C2)nnc1-c1ccc(C)cc1O [Example 72, 2-[4-ethyl-6-[(2S)-2-(hydroxymethyl)morpholin-4-yl]pyridazin-3-yl]-5-methyl-phenol] | 107 | > 10000 |
| Cc1cc(Cl)cc(O)c1-c1ccc(N2CCO[C@@H](CF)C2)nn1 [Example 338, 5-chloro-2-[6-[(2R)-2-(fluoromethyl)morpholin-4-yl]pyridazin-3-yl]-3-methyl-phenol] | 46 | > 10000 |
| Cc1cc(C)c(-c2ccc(N3CCO[C@H]4CN(C5CCC5)CC[C@H]43)nn2)c(O)c1 (racemic) [Example 4, 3,5-dimethyl-2-[6-[rac-(4aS,8aR)-6-cyclobutyl-3,4a,5,7,8,8a-hexahydro-2H-pyrido[3,4-b][1,4]oxazin-1-yl]pyridazin-3-yl]phenol] | 251 | > 10000 |
| Cc1cc(C)c(-c2ccc(N3CCc4c(CO)cccc43)nn2)c(O)c1 [Example 241, 2-[6-[4-(hydroxymethyl)indolin-1-yl]pyridazin-3-yl]-3,5-dimethyl-phenol] | 250 | > 10000 |
| Cc1cc(N2CCO[C@H](CO)C2)nnc1-c1ccc2c(c1O)CCC2 [Example 324, 5-[6-[(2S)-2-(hydroxymethyl)morpholin-4-yl]-4-methyl-pyridazin-3-yl]indan-4-ol] | 56 | > 10000 |
| Cc1cc(O)c(-c2nnc(N3CCO[C@H](CO)C3)cc2C)c(Cl)c1 [Example 177, 3-chloro-2-[6-[(2S)-2-(hydroxymethyl)morpholin-4-yl]-4-methyl-pyridazin-3-yl]-5-methyl-phenol] | 91 | 7380 |

Continued by falling IC50 (NLRP3 inflammasome), values first:

| IC50 (NLRP3 inflammasome) [nM] | IC50 [1] [nM] | Compound |
| --- | --- | --- |
| 551 | 9650 | Cc1cc(C)c(-c2ccc(N3CCc4cc(O)ccc43)nn2)c(O)c1 [Example 236, 1-[6-(2-hydroxy-4,6-dimethyl-phenyl)pyridazin-3-yl]indolin-5-ol] |
| 522 | > 10000 | Cc1cc(C)c(-c2ccc(N3CCC[C@]4(C3)C[C@H](O)C4)nn2)c(O)c1 (single isomer, unassigned; isomer 1) [Example 175, 6-[6-(2-hydroxy-4,6-dimethyl-phenyl)pyridazin-3-yl]-6-azaspiro[3.5]nonan-2-ol Isomer 1] |
| 515 | > 10000 | Cc1cc(C(F)(F)F)cc(O)c1-c1ccc(N2CCO[C@@H](CNC(=O)C(C)C)C2)nn1 [Example 276, N-[[(2S)-4-[6-[2-hydroxy-6-methyl-4-(trifluoromethyl)phenyl]pyridazin-3-yl]morpholin-2-yl]methyl]-2-methylpropanamide] |
| 325 | > 10000 | Cc1cc(C)c(-c2ccc(N3C[C@H]4COC[C@H]4C3)nn2)c(O)c1 [Example 206, 2-[6-[(3aS,6aR)-1,3,3a,4,6,6a-hexahydrofuro[3,4-c]pyrrol-5-yl]pyridazin-3-yl]-3,5-dimethyl-phenol] |
| 281 | > 10000 | Cc1cc(O)c(-c2ccc(N3CCO[C@H](CO)C3)nn2)c(F)c1 [Example 45, 3-fluoro-2-[6-[(2S)-2-(hydroxymethyl)morpholin-4-yl]pyridazin-3-yl]-5-methyl-phenol] |
| 183 | 9600 | CC(C)c1cc(N2CCO[C@H](CO)C2)nnc1-c1ccc(Cl)cc1O [Example 75, 5-chloro-2-[6-[(2S)-2-(hydroxymethyl)morpholin-4-yl]-4-isopropyl-pyridazin-3-yl]phenol] |
| 174 | 3010 | Cc1cc(C)c(-c2ccc(N3C[C@@H]4COC[C@H]4C3)nn2)c(O)c1 (stereo in doubt) [Example 207, 2-[6-[(3aR,6aR)-1,3,3a,4,6,6a-hexahydrofuro[3,4-c]pyrrol-5-yl]pyridazin-3-yl]-3,5-dimethyl-phenol] |
| 111 | > 10000 | Cc1cccc(O)c1-c1ccc(N2CCO[C@H](CO)C2)nn1 [Example 56, 2-[6-[(2S)-2-(hydroxymethyl)morpholin-4-yl]pyridazin-3-yl]-3-methyl-phenol] |
| 56 | > 10000 | CCN1CC[C@@H]2OCCN(c3ccc(-c4c(C)cc(Cl)cc4O)nn3)[C@@H]2C1 (single isomer, unassigned) [Example 312] |
| 29 | > 10000 | Cc1ccc(F)c(O)c1-c1ccc(N2CCO[C@@H]3CCN(C)C[C@@H]32)nn1 [Example 353, 2-[6-[(4aS,8aR)-6-methyl-3,4a,5,7,8,8a-hexahydro-2H-pyrido[4,3-b][1,4]oxazin-4-yl]pyridazin-3-yl]-6-fluoro-3-methyl-phenol] |
| 18 | > 10000 | CCN1CC[C@H]2OCCN(c3ccc(-c4c(C)cccc4O)nn3)[C@H]2C1 [Example 412, 2-[6-[(4aS,8aR)-6-ethyl-3,4a,5,7,8,8a-hexahydro-2H-pyrido[4,3-b][1,4]oxazin-4-yl]pyridazin-3-yl]-3-methyl-phenol] |
| 12 | > 10000 | Cc1cc(C)c(-c2cc(C(F)F)c(N3CCO[C@H](CO)C3)nn2)c(O)c1 [Example 170, 2-[5-(difluoromethyl)-6-[(2S)-2-(hydroxymethyl)morpholin-4-yl]pyridazin-3-yl]-3,5-dimethyl-phenol] |
| 3 | > 10000 | CCN1CC[C@H]2OCCN(c3cc(C(F)F)c(-c4ccc(C)cc4O)nn3)[C@H]2C1 [Example 323, 2-[6-[(4aS,8aR)-6-ethyl-3,4a,5,7,8,8a-hexahydro-2H-pyrido[4,3-b][1,4]oxazin-4-yl]-4-(difluoromethyl)pyridazin-3-yl]-5-methyl-phenol] |
| 2 | > 10000 | CN1CC[C@H]2CCN(c3ccc(-c4c(O)cccc4C(F)(F)F)nn3)[C@H]2C1 (single isomer, unassigned) [Example 427] |
| 2 | > 10000 | Cc1cc(C(F)(F)F)cc(O)c1-c1ccc(N2CCO[C@@H]3CCN(C4CCC4)C[C@@H]32)nn1 (single isomer, unassigned) [Example 13] |
| 1 | > 10000 | Cc1cc(Cl)cc(O)c1-c1ccc(N2CCO[C@@H]3CCN(C)C[C@@H]32)nn1 (single isomer, unassigned) [Example 321] |
| 1 | > 10000 | Cc1cc(C(F)(F)F)cc(O)c1-c1ccc(N2CCO[C@H]3CCN(C)C[C@H]32)nn1 (single isomer, unassigned) [Example 261] |
